The subject of test [1] is P. yoelii-infected mice. As to conditions: oral, 100 mg kg^-1; cited from earlier work.
Test [2] concerns P. falciparum 3D7 cultures. The test is described as follows: microbe, parasite or virus in culture. Conditions: Plasmodium falciparum, 3D7, 48 h. As to the method: Parasitemia of P. falciparum 3D7 cultures was adjusted to 1.5% with more than 90% of parasites at ring stage after sorbitol synchronization. 98 µL of this Plasmodium culture was plated in 96-well plates and incubated in the presence of phosphate-buffered saline (PBS) solutions of the free drugs or of polymer/drug conjugates (ISA 23-PQ obtained in Example3; AGMA1-PQ obtained in Example 4,; ISA 23-CQ obtained in Example 3; AGMA1-CQ obtained in Example 4) for 48 h at 37°C under a gas mixture of 92% N2, 5% CO2, and 3% O2. Parasitemia was determined by microscopic counting of blood smears, or by FACS. Table 2. Effect of free primaquine, ISA23-PQ and AGMA1-PQ on the growth of P. falciparum. The polymers were added to P. falciparum cultures at the ring stage, and incubated for 48 h before determining parasitemia.

Test [3] has as its system P. yoelii XL-infected mice. Conditions: for % parasitemia: day 4. As to the method:
Briefly, mice were inoculated 2 × 10^6 red blood cells from P. yoelii XL-infected mice by intraperitoneal (ip) injection. […] Tested compounds were prepared at appropriate doses in PBS. The control groups received PBS (n=3). The parasitemia was monitored daily by microscopic examination of Wright's-stained thin-blood smears. Activity was calculated by microscopic counting of blood smears from day 4.

In test [4] the test system is P. berghei-infected mice. As to conditions: single intravenous dose of 1 mg kg^-1, free drug; cited from earlier work.

Results on 4 molecules are retold here after patent EP2732821A1, “Amphoteric polyamidoamines in the treatment of malaria” (Universita' Degli Studi Di Milano, priority 2012, dated 2014).

Each structure is given as a SMILES string. Like-named read-outs stand apart in the source and are kept apart here.

As for `COc1cc(/C=C/C(=O)CC(=O)/C=C/c2ccc(O)c(OC)c2)ccc1O` [curcumin], in test [1], the animals cured entry is “one third”.
Broadly, the inhibition is how much of the control response was suppressed. The low end stands for a weak effect, the high end for a strong effect. Consider `CCN(CC)CCCC(C)Nc1ccnc2cc(Cl)ccc12` (centres unmarked) [CQ soluble, chloroquine], for which, in test [2], the inhibition at 0.0026 µg/mL was found to be 8.9%, 0.00515 µg/mL produced 22.6% inhibition, the inhibition at 0.0103 µg/mL was 72.9% and 0.0206 µg/mL produced 82.1% inhibition. Moreover, in test [2], the inhibition at 0.0414 µg/mL was determined as 85.9% and the inhibition at 0.0824 µg/mL turned out to be 86.4%. In addition, in test [3] (chloroquine 1 mg/kg per day ip for 4 days), the “% parasitemia” value is on record as 37.7%. Moreover, the “% parasitemia” value in test [3] (chloroquine 2.5 mg/kg) amounted to 20.1%. In addition, the “elimination of parasitemia and cure of the animals” value in test [3] (intraperitoneal 4 × 1 mg kg^-1 doses of CQ, free CQ at the same or even a larger amount) was “unable to eliminate parasitemia or cure the animals”.
In test [2], `COc1cc(NC(C)CCCN)c2ncccc2c1` (centres unmarked) [PQ soluble, primaquine] showed an inhibition at 0.44 µg/mL of 6.9%, an inhibition at 0.88 µg/mL of 40.9%, an inhibition at 1.76 µg/mL of 53.9% and an inhibition at 3.52 µg/mL of 80.3%. For the same molecule, in test [2], the inhibition at 7.04 µg/mL was 86.6% and the inhibition at 14.1 µg/mL is 88.2%.
`CCCCN(CCCC)CCC(O)c1cc2c(Cl)cc(Cl)cc2c2cc(C(F)(F)F)ccc12` (centres unmarked) [halofantrine]: the “arrest of infection and survival” value in test [4] was “unable to arrest the infection or to prolong the survival of the animals”.
